According to patent US11046651B2, “Piperazine substituted azapine derivatives and uses thereof” (Alairion, Inc., priority 2019, dated 2021):

Tests used:
H1 = H1 (Homo sapiens (Human), UniProt P35367); experiment: H1 binding assay ([3H]pyrilamine, HEK293 stable cell line membranes); conditions: Table E, class symbols
Method: Example 25. H1 and 5-HT2A Binding Assay Protocol
(§1) The testing compounds were diluted with DMSO, starting at 2 mM, with 8-points and 5-fold serial dilutions. Ketanserin and Pyrilamine were diluted with DMSO, starting at 0.2 mM, with 8-points and 5-fold serial dilution.
(§2) 1 μl of a compounds of the present disclosure and either reference compound (Table C) were transferred to assay plates. 1 μl of 0.2 mM Ketanserin or Pyrilamine was transferred to an assay plate according to the plate map for nonspecific binding (Low control: LC). 1 μl of DMSO was transferred to an assay plate according to plate map for total binding (High control: HC).
(§3) 100 μlof membrane stocks were dispensed into the plates, following the plate map. 100 of radio ligand was added. The plates were sealed and shaken at 300 rpm at room temperature for 1 hour. The Unifilter-96 GF/C filter plates were soaked with 50 of 0.3% PEI per well for at least 0.5 hour at room temperature.
(§4) When the binding assays were complete, the reaction mixture was filtered through GF/C plates using Perkin Elmer Filtermate Harvester, and then each plate was washed 4 times with cold wash buffer. The filter plates were dried for 1 hour at 50 degrees. After drying, the bottom of the filter plate wells were sealed using Perkin Elmer Unifilter-96 backing seal tape. 50 μl of Perkin Elmer Microscint 20 cocktail was added. The top of the filter plates were sealed with Perkin Elmer TopSeal-A sealing film.
(§5) ^3H trapped on filters were counted using Perkin Elmer MicroBeta2 Reader. Inhibition constants were calculated using the following equation:
(§6) [formula] The data was analyzed using Prism 5. The model used was “log(inhibitor) vs. response—Variable slope” to fit the data and calculate IC50. The IC50 was then converted to Ki using following equation: Ki=IC50/(1+L/Kd). L is the radioligand concentration in the reaction system; Kd is the affinity of radioligand to the receptor.

5-HT2A = 5-HT2A (Homo sapiens (Human), UniProt P28223); experiment: 5-HT2A binding assay ([3H]-Ketanserin, HEK293 stable cell line membranes); conditions: Table F, class symbols
Sequence of 5-HT2A (P28223 whole entry, species assumed): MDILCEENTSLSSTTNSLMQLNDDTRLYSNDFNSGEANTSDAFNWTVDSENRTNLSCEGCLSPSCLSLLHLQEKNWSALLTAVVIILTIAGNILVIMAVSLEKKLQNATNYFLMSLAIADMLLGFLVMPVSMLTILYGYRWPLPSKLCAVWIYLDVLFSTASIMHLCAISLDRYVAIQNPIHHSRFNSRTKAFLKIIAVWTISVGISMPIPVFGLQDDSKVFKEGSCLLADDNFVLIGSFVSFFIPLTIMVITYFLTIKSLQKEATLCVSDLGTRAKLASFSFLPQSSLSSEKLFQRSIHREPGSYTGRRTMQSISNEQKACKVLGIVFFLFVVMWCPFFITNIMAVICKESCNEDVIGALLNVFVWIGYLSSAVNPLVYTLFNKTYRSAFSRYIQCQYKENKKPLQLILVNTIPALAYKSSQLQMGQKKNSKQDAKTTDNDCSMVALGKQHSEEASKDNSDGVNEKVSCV
Method: H1 and 5-HT2A Binding Assay Protocol
as §1, §2, §3, §4, §5, §6

D2 = D2 (Homo sapiens (Human), UniProt P14416); experiment: D2 binding assay ([3H] 7-OH-DPAT, HEK293 D2L membranes); conditions: numeric values
Sequence of D2 (P14416 whole entry): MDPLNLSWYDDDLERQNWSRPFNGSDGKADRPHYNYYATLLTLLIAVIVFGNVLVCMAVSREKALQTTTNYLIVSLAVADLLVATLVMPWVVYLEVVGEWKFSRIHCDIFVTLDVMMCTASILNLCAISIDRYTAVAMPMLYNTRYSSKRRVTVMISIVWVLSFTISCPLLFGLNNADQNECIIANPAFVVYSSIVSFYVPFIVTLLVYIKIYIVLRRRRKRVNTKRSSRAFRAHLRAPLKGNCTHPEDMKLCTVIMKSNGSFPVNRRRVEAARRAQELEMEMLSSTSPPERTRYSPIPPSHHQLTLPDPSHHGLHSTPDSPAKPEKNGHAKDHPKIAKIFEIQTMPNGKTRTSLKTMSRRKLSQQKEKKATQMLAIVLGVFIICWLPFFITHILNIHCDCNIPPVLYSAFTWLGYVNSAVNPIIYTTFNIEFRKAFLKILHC
Method: D2 Binding Assay Protocol
The testing compounds were diluted with DMSO, starting at 2 mM, with 8-points and 5-fold serial dilutions. droperidol was diluted with DMSO, starting at 0.2 mM, with 8-points and 4-fold serial dilutions.
1 μL of a compound of the present disclosure and the reference compound (Table O) was transferred to an assay plate. 1 μL of droperidol was transferred to an assay plate according to the plate map for nonspecific binding (Low control: LC). 1 μL of DMSO was transferred to an assay plate according to the plate map for total binding (High control: HC). Following a plate map, 100 μL of the membrane stock solutions and radio ligand were added into the plate. The plates were sealed and shaken with 300 rpm.
as §4, with “Unifilter-96 GF/C filter plates were soaked with 50 μL of 0.3% PEI per well for about 0.5 hours at room temperature. When” for “When”, “the GF/B filter” for “GF/C”, “and” for “and then”, “50° C.” for “50 degrees.”, “μL” for “μl”
^3H trapped on filters were counted using Perkin Elmer MicroBeta2 Reader. Inhibition constants were calculated using the following equation: […]
The data was analyzed using Prism 5. The model used was “log(inhibitor) vs. response—Variable slope” to fit the data and calculate IC50. The IC50 was then converted to Ki using the following equation: Ki=IC50/(1+L/Kd), wherein L is the radioligand concentration in the reaction system; Kd is the affinity of radioligand to the receptor. As shown in Table Q Compound No. 7 has a lower affinity for D2 when compared to Compounds A-2, A-3, A-4, and A-5.

Sequence of H1 (P35367 whole entry): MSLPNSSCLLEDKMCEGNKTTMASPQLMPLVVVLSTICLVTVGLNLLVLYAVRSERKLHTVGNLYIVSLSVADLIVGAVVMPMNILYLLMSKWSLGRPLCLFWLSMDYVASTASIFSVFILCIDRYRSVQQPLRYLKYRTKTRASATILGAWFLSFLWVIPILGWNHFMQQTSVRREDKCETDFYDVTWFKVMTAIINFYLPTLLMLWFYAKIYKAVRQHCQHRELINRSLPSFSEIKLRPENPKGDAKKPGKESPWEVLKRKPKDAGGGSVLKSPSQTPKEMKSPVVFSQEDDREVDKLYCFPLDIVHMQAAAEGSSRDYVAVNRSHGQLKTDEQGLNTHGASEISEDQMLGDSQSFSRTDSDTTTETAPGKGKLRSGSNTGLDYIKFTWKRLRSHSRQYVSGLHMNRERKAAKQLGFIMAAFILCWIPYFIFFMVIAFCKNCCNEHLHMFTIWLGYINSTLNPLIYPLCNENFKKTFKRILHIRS

Compound: Cc1ccc2c(c1)Oc1cc(C)ccc1C(N1CCN(CC(C)(C)C(=O)O)CC1)=N2 [Compound No. 7, 3-(4-(3,7-dimethyldibenzo[b,f][1,4]oxazepin-11-yl)piperazin-1-yl)-2,2-dimethylpropanoic acid]
- Ki (H1): > 50 nM
- Ki (5-HT2A): 1 to 25 nM
- Ki (D2): > 50000 nM
